Key:
[1] = target: T1, hCA IX (Homo sapiens, UniProt Q16790); experiment: stopped flow CO2 hydrase assay; format: biochemical; conditions: for Selectivity ratio II/IX: KI hCA II / KI hCA IX; for Ki: mean from 3 assays
T1 construct: made in house
In short: (§1)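 Recombinant enzymes assayed by stopped-flow CO2 hydration using 0.2 mM phenol red at 557 nm in 20 mM Hepes pH 7.5 with 20 mM Na2SO4, CO2 1.7–17 mM. Inhibitor and enzyme preincubated 15 min at room temperature.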

[2] = target: T2, hCA XII (Homo sapiens, UniProt O43570); experiment: stopped flow CO2 hydrase assay; format: biochemical; conditions: for Selectivity ratio I/XII: KI hCA I / KI hCA XII; for Selectivity ratio II/XII: KI hCA II / KI hCA XII; for Ki: mean from 3 assays
T2 construct: made in house
T2 sequence (O43570 25-354): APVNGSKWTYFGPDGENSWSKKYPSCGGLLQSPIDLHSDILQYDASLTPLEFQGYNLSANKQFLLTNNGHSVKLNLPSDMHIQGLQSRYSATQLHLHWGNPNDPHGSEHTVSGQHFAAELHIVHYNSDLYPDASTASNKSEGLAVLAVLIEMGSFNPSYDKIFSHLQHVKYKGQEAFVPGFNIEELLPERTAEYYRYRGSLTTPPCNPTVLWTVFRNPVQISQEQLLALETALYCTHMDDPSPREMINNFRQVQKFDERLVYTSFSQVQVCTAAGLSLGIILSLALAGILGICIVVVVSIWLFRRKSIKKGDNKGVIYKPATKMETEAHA
In short: as §1

[3] = target: T3, hCA I (Homo sapiens, UniProt P00915); experiment: stopped flow CO2 hydrase assay; format: biochemical; conditions: mean from 3 assays
T3 construct: made in house
T3 sequence (P00915 whole entry): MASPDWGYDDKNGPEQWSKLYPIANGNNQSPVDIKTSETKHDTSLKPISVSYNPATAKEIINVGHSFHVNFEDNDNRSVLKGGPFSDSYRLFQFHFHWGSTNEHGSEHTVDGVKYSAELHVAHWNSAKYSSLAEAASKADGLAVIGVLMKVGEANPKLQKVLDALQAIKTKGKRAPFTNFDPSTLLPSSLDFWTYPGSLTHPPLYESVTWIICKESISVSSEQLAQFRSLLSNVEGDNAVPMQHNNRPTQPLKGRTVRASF
In short: as §1

[4] = test system: K-562; experiment: NCI SRB assay; format: cell-based, human; conditions: for GI%: K-562, 10 μM; for Growth Percent: K-562, 1.00E-5 Molar
[5] = test system: NCI/ADR-RES; experiment: NCI SRB assay; format: cell-based, human; conditions: for GI%: 10 μM; for Growth Percent: 1.00E-5 Molar
[6] = test system: NCI-H522; experiment: NCI SRB assay; format: cell-based, human; conditions: for GI%: NCI-H522, 10 μM; for Growth Percent: NCI-H522, 1.00E-5 Molar
[7] = test system: OVCAR-8; experiment: NCI SRB assay; format: cell-based, human; conditions: for GI%: OVCAR-8, 10 μM; for Growth Percent: OVCAR-8, 1.00E-5 Molar
[8] = test system: MCF7; experiment: NCI SRB assay; format: cell-based, human; conditions: for GI%: MCF7, 10 μM; for Growth Percent: MCF7, 1.00E-5 Molar
[9] = test system: 786-0; experiment: NCI SRB assay; format: cell-based, human; conditions: for GI%: 786-0, 10 μM; for Growth Percent: 786-0, 1.00E-5 Molar
[10] = test system: A549/ATCC; experiment: NCI SRB assay; format: cell-based, human; conditions: A549/ATCC; for GI%: 10 μM; for Growth Percent: 1.00E-5 Molar
[11] = test system: DU-145; experiment: NCI SRB assay; format: cell-based, human; conditions: for GI%: DU-145, 10 μM; for Growth Percent: DU-145, 1.00E-5 Molar
[12] = test system: SN12C; experiment: NCI SRB assay; format: cell-based, human; conditions: SN12C; for Growth Percent: 1.00E-5 Molar
[13] = test system: OVCAR-5; experiment: NCI SRB assay; format: cell-based, human; conditions: for GI%: OVCAR-5, 10 μM; for Growth Percent: OVCAR-5, 1.00E-5 Molar
[14] = test system: NCI-H226; experiment: NCI SRB assay; format: cell-based, human; conditions: for GI%: NCI-H226, 10 μM; for Growth Percent: NCI-H226, 1.00E-5 Molar
[15] = test system: MOLT-4; experiment: NCI SRB assay; format: cell-based, human; conditions: for GI%: MOLT-4, 10 μM; for Growth Percent: MOLT-4, 1.00E-5 Molar
[16] = test system: A498; experiment: NCI SRB assay; format: cell-based, human; conditions: for GI%: A498, 10 μM; for Growth Percent: A498, 1.00E-5 Molar
[17] = test system: CCRF-CEM; experiment: NCI SRB assay; format: cell-based, human; conditions: for GI%: 10 μM; for Growth Percent: 1.00E-5 Molar
[18] = test system: M14; experiment: NCI SRB assay; format: cell-based, human; conditions: for GI%: M14, 10 μM; for Growth Percent: M14, 1.00E-5 Molar
[19] = test system: SF-295; experiment: NCI SRB assay; format: cell-based, human; conditions: for GI%: SF-295, 10 μM; for Growth Percent: SF-295, 1.00E-5 Molar
[20] = test system: SW-620; experiment: NCI SRB assay; format: cell-based, human; conditions: for GI%: SW-620, 10 μM; for Growth Percent: SW-620, 1.00E-5 Molar
[21] = test system: BT-549; experiment: NCI SRB assay; format: cell-based, human; conditions: for GI%: BT-549, 10 μM; for Growth Percent: BT-549, 1.00E-5 Molar
[22] = test system: EKVX; experiment: NCI SRB assay; format: cell-based, human; conditions: for GI%: 10 μM; for Growth Percent: 1.00E-5 Molar
[23] = test system: SK-MEL-5; experiment: NCI SRB assay; format: cell-based, human; conditions: for GI%: SK-MEL-5, 10 μM; for Growth Percent: SK-MEL-5, 1.00E-5 Molar
[24] = test system: MALME-3M; experiment: NCI SRB assay; format: cell-based, human; conditions: for GI%: 10 μM; for Growth Percent: 1.00E-5 Molar
[25] = test system: OVCAR-3; experiment: NCI SRB assay; format: cell-based, human; conditions: for GI%: OVCAR-3, 10 μM; for Growth Percent: OVCAR-3, 1.00E-5 Molar
[26] = test system: LOX IMVI; experiment: NCI SRB assay; format: cell-based, human; conditions: for GI%: 10 μM; for Growth Percent: 1.00E-5 Molar
[27] = test system: HCT-116; experiment: NCI SRB assay; format: cell-based, human; conditions: for GI%: HCT-116, 10 μM; for Growth Percent: HCT-116, 1.00E-5 Molar
[28] = test system: MDA-MB-468; experiment: NCI SRB assay; format: cell-based, human; conditions: for GI%: MDA-MB-468, 10 μM; for Growth Percent: MDA-MB-468, 1.00E-5 Molar

SMILES: COc1ccc(-c2nc(Nc3ccccc3C(=O)O)c3ccccc3n2)cc1 [6c, 2-((2–(4-Methoxyphenyl)quinazolin-4-yl)amino)benzoic acid]
- Selectivity ratio II/IX [1]: 1.79
- Ki [1]: 46.4 µM
- Selectivity ratio I/XII [2]: 11.2
- Selectivity ratio II/XII [2]: 9.34
- Ki [2]: 8.9 µM
- Ki [3]: > 100 µM
- GI% [4]: 69%
- Growth Percent [4]: 31.34%
- GI% [5]: 46%
- Growth Percent [5]: 54.40%
- GI% [6]: 63%
- Growth Percent [6]: 37.29%
- GI% [7]: 40%
- Growth Percent [7]: 60.14%
- GI% [8]: 49%
- Growth Percent [8]: 51.24%
- GI% [9]: 48%
- Growth Percent [9]: 51.90%
- GI% [10]: 60%
- Growth Percent [10]: 39.61%
- GI% [11]: 43%
- Growth Percent [11]: 56.86%
- Growth Percent [12]: 47.71%
- GI% [13]: 27%
- Growth Percent [13]: 73.07%
- GI% [14]: 47%
- Growth Percent [14]: 53.45%
- GI% [15]: 64%
- Growth Percent [15]: 36.24%
- GI% [16]: 41%
- Growth Percent [16]: 58.92%
- GI% [17]: 58%
- Growth Percent [17]: 42.05%
- GI% [18]: 48%
- Growth Percent [18]: 52.09%
- GI% [19]: 60%
- Growth Percent [19]: 39.93%
- GI% [20]: 61%
- Growth Percent [20]: 39.05%
- GI% [21]: 62%
- Growth Percent [21]: 37.53%
- GI% [22]: 66%
- Growth Percent [22]: 33.92%
- GI% [23]: 70%
- Growth Percent [23]: 30.49%
- GI% [24]: 31%
- Growth Percent [24]: 68.60%
- GI% [25]: 54%
- Growth Percent [25]: 43.93%
- GI% [26]: 50%
- Growth Percent [26]: 49.53%
- GI% [27]: 62%
- Growth Percent [27]: 37.54%
- GI% [28]: 57%
- Growth Percent [28]: 42.97%

SMILES: Cc1ccc(-c2nc(Nc3cccc(C(=O)O)c3)c3ccccc3n2)cc1 [7b, 3-((2-(p-Tolyl)quinazolin-4-yl)amino)benzoic acid]
- Selectivity ratio II/IX [1]: 1.72
- Ki [1]: 24.2 µM
- Selectivity ratio I/XII [2]: 109.9
- Selectivity ratio II/XII [2]: 45.82
- Ki [2]: 0.91 µM
- Ki [3]: > 100 µM
- GI% [4]: 20%
- Growth Percent [4]: 80.06%
- GI% [5]: – (Only GI% higher than 20% are shown)
- Growth Percent [5]: 89.49%
- GI% [6]: – (Only GI% higher than 20% are shown)
- Growth Percent [6]: 86.87%
- GI% [7]: – (Only GI% higher than 20% are shown)
- Growth Percent [7]: 91.56%
- GI% [8]: – (Only GI% higher than 20% are shown)
- Growth Percent [8]: 85.28%
- GI% [9]: 24%
- Growth Percent [9]: 76.25%
- GI% [10]: – (Only GI% higher than 20% are shown)
- Growth Percent [10]: 90.82%
- GI% [11]: – (Only GI% higher than 20% are shown)
- Growth Percent [11]: 96.55%
- GI% ([12]; 10 μM): 23%
- Growth Percent [12]: 76.64%
- GI% [13]: – (Only GI% higher than 20% are shown)
- Growth Percent [13]: 107.97%
- GI% [14]: 25%
- Growth Percent [14]: 75.32%
- GI% [15]: – (Only GI% higher than 20% are shown)
- Growth Percent [15]: 89.24%
- GI% [16]: – (Only GI% higher than 20% are shown)
- Growth Percent [16]: 95.15%
- GI% [17]: 21%
- Growth Percent [17]: 78.66%
- GI% [18]: – (Only GI% higher than 20% are shown)
- Growth Percent [18]: 83.59%
- GI% [19]: 34%
- Growth Percent [19]: 65.90%
- GI% [20]: – (Only GI% higher than 20% are shown)
- Growth Percent [20]: 94.08%
- GI% [21]: – (Only GI% higher than 20% are shown)
- Growth Percent [21]: 101.46%
- GI% [22]: 41%
- Growth Percent [22]: 58.70%
- GI% [23]: – (Only GI% higher than 20% are shown)
- Growth Percent [23]: 85.67%
- GI% [24]: – (Only GI% higher than 20% are shown)
- Growth Percent [24]: 96.44%
- GI% [25]: – (Only GI% higher than 20% are shown)
- Growth Percent [25]: 85.56%
- GI% [26]: – (Only GI% higher than 20% are shown)
- Growth Percent [26]: 81.15%
- GI% [27]: 26%
- Growth Percent [27]: 74.42%
- GI% [28]: – (Only GI% higher than 20% are shown)
- Growth Percent [28]: 116.40%

From publication PMC10035947, “Development of novel anilinoquinazoline-based carboxylic acids as non-classical carbonic anhydrase IX and XII inhibitors” (Journal of Enzyme Inhibition and Medicinal Chemistry, 2023)
